Values quoted from earlier work as cited in patent publication US20060286181A1, “Diet supplements for causing fast weight loss, improving daytime energy, promoting nighttime relaxation and sleep, controlling appetite and/or increasing metabolism” (priority 2005, published 2006).
Like-named read-outs stand apart in the source and are kept apart here.

Columns and labels:
[1] = test system: benzodiazepine binding site in the gamma-aminobutyric acid receptor type A (GABA(A))
[2] = in vivo
[3] = at least three clinical trials
[4] = test system: fatty acid synthesis; conditions: rats
[5] = test system: appetite; conditions: rats
[6] = target: T1, ATP:citrate lyase (Homo sapiens, UniProt P53396)
T1 sequence (P53396 1-1101): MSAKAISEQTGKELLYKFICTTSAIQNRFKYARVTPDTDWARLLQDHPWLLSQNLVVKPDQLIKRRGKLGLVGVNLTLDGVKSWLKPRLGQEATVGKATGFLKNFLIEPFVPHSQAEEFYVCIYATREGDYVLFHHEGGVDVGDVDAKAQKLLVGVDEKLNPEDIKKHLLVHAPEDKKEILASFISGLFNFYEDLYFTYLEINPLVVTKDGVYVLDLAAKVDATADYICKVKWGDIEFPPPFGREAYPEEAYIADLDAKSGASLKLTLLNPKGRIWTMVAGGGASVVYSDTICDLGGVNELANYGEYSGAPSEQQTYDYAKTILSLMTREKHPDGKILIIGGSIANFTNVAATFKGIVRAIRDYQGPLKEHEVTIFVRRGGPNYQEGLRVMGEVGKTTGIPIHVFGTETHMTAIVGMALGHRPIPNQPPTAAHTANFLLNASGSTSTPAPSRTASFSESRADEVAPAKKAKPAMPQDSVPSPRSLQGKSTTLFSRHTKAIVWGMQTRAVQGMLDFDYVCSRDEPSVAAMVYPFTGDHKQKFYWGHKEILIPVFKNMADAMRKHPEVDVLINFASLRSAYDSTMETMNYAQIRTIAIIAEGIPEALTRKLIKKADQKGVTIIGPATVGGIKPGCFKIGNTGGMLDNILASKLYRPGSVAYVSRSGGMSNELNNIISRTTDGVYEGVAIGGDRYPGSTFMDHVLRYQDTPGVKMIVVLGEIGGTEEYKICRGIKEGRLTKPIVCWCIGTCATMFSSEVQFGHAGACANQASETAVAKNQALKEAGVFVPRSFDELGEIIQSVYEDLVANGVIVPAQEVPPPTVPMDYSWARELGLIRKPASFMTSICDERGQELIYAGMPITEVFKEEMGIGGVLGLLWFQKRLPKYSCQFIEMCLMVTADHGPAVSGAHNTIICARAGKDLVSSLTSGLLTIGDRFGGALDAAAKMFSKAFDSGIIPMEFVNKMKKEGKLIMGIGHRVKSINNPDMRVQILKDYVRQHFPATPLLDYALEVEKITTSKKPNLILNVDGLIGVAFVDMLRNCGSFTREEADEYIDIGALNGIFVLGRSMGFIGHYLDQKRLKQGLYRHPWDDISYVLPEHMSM

[7] = test system: diet-induced weight gain; conditions: mice
[8] = meta-analysis of forty double-blind studies
[9] = not given; remark: listed apart in the source
[10] = test system: adenosine receptors
[11] = daily supplementation with moderate exercise, 8 weeks
[12] = not given; remark: listed apart in the source
[13] = test system: Metabolic Syndrome
[14] = 8 weeks, overweight subjects
[15] = not given; remark: listed apart in the source

**Q.** With `O=c1cc(-c2ccc(O)cc2)oc2cc(O)cc(O)c12` [Apigenin] as the molecule, how does the “binding to benzodiazepine binding site of GABA(A)” value [1] read?
**A.** can bind

**Q.** And the “memory and motor skills” value [2]?
**A.** without impairing memory or motor skills

**Q.** And the “sedation and locomotor activity” value [2]?
**A.** sedation and a reduction in locomotor activity

**Q.** For `N[C@@H](Cc1c[nH]c2ccc(O)cc12)C(=O)O` [Example 5-HTP, 5-hydroxy-L-tryptophan], which “weight loss, safety and efficacy” value [3] is on record?
**A.** safely and effectively to aid in weight loss

**Q.** Which results are given for `O=C(O)CC(O)(C(=O)O)C(O)C(=O)O` (centres unmarked) [HCA, Hydroxycitric acid]?
**A.** fatty acid synthesis [4]: inhibit fatty acid synthesis; appetite [5]: repress appetite; inhibition of ATP:citrate lyase [6]: competitive inhibitor; caloric intake (clinical studies): reduction caloric intake; safety (human clinical trials): demonstrated safety; levels of serotonin (human, in vivo): significantly increased; fat oxidation during exercise (untrained men and women): increasing fat oxidation

**Q.** With `COc1ccc2[nH]cc(CCNC(C)=O)c2c1` [Melatonin] as the molecule, how does the diet-induced weight gain [7] read?
**A.** reduce diet-induced weight gain

**Q.** For `Cn1c(=O)c2c(ncn2C)n(C)c1=O` [caffeine, Caffeine], which physical endurance [8] is on record?
**A.** increase physical endurance

**Q.** What about the basal metabolic rate ([9]; in vivo) of the same molecule?
**A.** increase the basal metabolic rate

**Q.** And the weight loss ([9]; obese women)?
**A.** Significant weight loss

**Q.** And the “binding to and activation of adenosine receptors” value [10]?
**A.** binds to, but does not activate

**Q.** Which blood cholesterol profile [11] does the source give for `[Cr]` [chromium, Chromium] here?
**A.** improved blood cholesterol profile

**Q.** What about the weight loss ([11]; vs placebo group) of the same molecule?
**A.** increased weight loss

**Q.** And the lean mass ([12]; clinical)?
**A.** increase lean mass

**Q.** And the body fat ([12]; combined with exercise)?
**A.** reduce body fat

**Q.** What about the HDL cholesterol ([12]; in vivo) of the same molecule?
**A.** increase HDL

**Q.** Which systolic blood pressure ([13]; compared to control groups) does the source give for Chromium Polynicotinate here?
**A.** effective in lowering systolic blood pressure

**Q.** And the “free radical damage in liver and kidney tissue” value ([13]; compared to controls)?
**A.** less free radical damage

**Q.** And the muscle loss [14]?
**A.** sparing muscle from loss

**Q.** What about the body fat ([14]; vs placebo group) of the same molecule?
**A.** significant loss of body fat

**Q.** For Phosphatidylserine, which cortisol levels ([15]; clinical trials) is on record?
**A.** lower cortisol levels

**Q.** And the stress ([15]; clinical trials)?
**A.** reduce stress

**Q.** What about the exercise capacity ([15]; human, in vivo) of the same molecule?
**A.** increase exercise capacity

**Q.** What about the mood ([15]; human, in vivo) of the same molecule?
**A.** positively affect mood
